Results taken from PubChem BioAssay AID248 (DTP/NCI, 2004).
Inconclusive results and toxic doses are left out. Rule as the data show it: active = T/C of 150% or more; inactive = T/C below 125%.

System: L1210 leukemia ip in BDF1 mice, survival T/C
Experiment: NCI In Vivo Anticancer Drug Screen. Data for tumor model L1210 Leukemia (intraperitoneal) in B6D2F1 (BDF1) mice
Conditions: endpoint: mean survival time, higher = longer survival
Summary of the method: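 Mice bearing the transplanted tumor received compound or vehicle. Survival of the treated group was divided by that of the vehicle-treated control group to give the ratio.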

[1] = dose: 100.0 mg/kg/injection, schedule: Q01DX001 (ip), vehicle: saline with Tween-80
[2] = dose: 200.0 mg/kg/injection, schedule: Q01DX001 (ip), vehicle: saline with Tween-80
[3] = dose: 400.0 mg/kg/injection, schedule: Q01DX001 (ip), vehicle: saline with Tween-80
[4] = dose: 75.0 mg/kg/injection, schedule: Q01DX001 (ip), vehicle: other
[5] = dose: 100.0 mg/kg/injection, schedule: Q01DX001 (ip), vehicle: carboxymethylcellulose (CMC)
[6] = dose: 200.0 mg/kg/injection, schedule: Q01DX001 (ip), vehicle: carboxymethylcellulose (CMC)
[7] = dose: 400.0 mg/kg/injection, schedule: Q01DX001 (ip), vehicle: carboxymethylcellulose (CMC)
[8] = dose: 100.0 mg/kg/injection, schedule: Q01DX009 (ip), vehicle: saline
[9] = dose: 200.0 mg/kg/injection, schedule: Q01DX009 (ip), vehicle: saline
[10] = dose: 100.0 mg/kg/injection, schedule: Q04DX003 (ip), vehicle: saline
[11] = dose: 100.0 mg/kg/injection, schedule: Q04DX003 (ip), vehicle: Klucel (hydroxypropylcellulose) (HPC)
[12] = dose: 200.0 mg/kg/injection, schedule: Q04DX003 (ip), vehicle: Klucel (hydroxypropylcellulose) (HPC)
[13] = dose: 400.0 mg/kg/injection, schedule: Q04DX003 (ip), vehicle: Klucel (hydroxypropylcellulose) (HPC)
[14] = dose: 100.0 mg/kg/injection, schedule: Q01DX009 (ip), vehicle: saline with Tween-80
[15] = dose: 100.0 mg/kg/injection, schedule: Q04DX003 (ip), vehicle: saline with Tween-80
[16] = dose: 200.0 mg/kg/injection, schedule: Q01DX009 (ip), vehicle: saline with Tween-80
[17] = dose: 200.0 mg/kg/injection, schedule: Q04DX003 (ip), vehicle: saline with Tween-80
[18] = dose: 400.0 mg/kg/injection, schedule: Q04DX003 (ip), vehicle: saline with Tween-80

Measured: T/C

c1scc2c1COCc1cscc1-2
inactive: [1] 94 % of control | [2] 94 % of control | [3] 88 % of control

COc1cc2c(cc1OC)C1C(=CCC3c4cc(OC)c(OC)cc4CC[N+]31C)C=C2 (stereo not given)
inactive: dose: 6.25 mg/kg/injection, schedule: Q01DX009 (ip), vehicle: saline with Tween-80 95 % of control | dose: 12.5 mg/kg/injection, schedule: Q01DX009 (ip), vehicle: saline with Tween-80 99 % of control | dose: 25.0 mg/kg/injection, schedule: Q01DX009 (ip), vehicle: saline with Tween-80 102 % of control

CCN(CC)Cc1cccc(Nc2cc(C)nc(/N=C(\N)Nc3ccc(Cl)c(Cl)c3)n2)c1
inactive: [4] 98 % of control | dose: 150.0 mg/kg/injection, schedule: Q01DX001 (ip), vehicle: other 95 % of control | dose: 300.0 mg/kg/injection, schedule: Q01DX001 (ip), vehicle: other 95 % of control

COC(=O)Cc1cccc(=O)c(O)c1C(=O)OC
inactive: dose: 50.0 mg/kg/injection, schedule: Q01DX001 (ip), vehicle: carboxymethylcellulose (CMC) 102 % of control | [5] 102 % of control | [6] 104 % of control | [7] 102 % of control

C1OC1C[N+]12CN3CN(CN(C3)C1)C2 (stereo not given)
inactive: dose: 100.0 mg/kg/injection, schedule: Q01DX005 (ip), vehicle: saline 92 % of control | [8] 109 % of control | dose: 200.0 mg/kg/injection, schedule: Q01DX005 (ip), vehicle: saline 113 % of control | [9] 106 % of control | dose: 400.0 mg/kg/injection, schedule: Q01DX005 (ip), vehicle: saline 103 % of control

O=CC1=C(Cl)c2ccccc2SC1
inactive: dose: 100.0 mg/kg/injection, schedule: Q01DX001 (ip), vehicle: other 93 % of control | dose: 200.0 mg/kg/injection, schedule: Q01DX001 (ip), vehicle: other 98 % of control

Cn1c(=S)[nH]c2cn[nH]c2c1=O
inactive: [1] 93 % of control | [2] 97 % of control | [3] 89 % of control

CC(C)OCCCN
inactive: [5] 97 % of control | [6] 97 % of control

CC(C)(C)C(=O)C#Cc1ccccc1
inactive: dose: 25.0 mg/kg/injection, schedule: Q04DX003 (ip), vehicle: saline 102 % of control | dose: 50.0 mg/kg/injection, schedule: Q04DX003 (ip), vehicle: saline 96 % of control | [10] 89 % of control

Cn1c[n+](C)cc1C(=O)[O-]
inactive: [8] 91 % of control | [10] 97 % of control | [9] 97 % of control | dose: 200.0 mg/kg/injection, schedule: Q04DX003 (ip), vehicle: saline 102 % of control | dose: 400.0 mg/kg/injection, schedule: Q01DX009 (ip), vehicle: saline 95 % of control | dose: 400.0 mg/kg/injection, schedule: Q04DX003 (ip), vehicle: saline 109 % of control

CS(=O)(=O)Oc1ccc(Cl)c2ccccc12
inactive: [5] 98 % of control | [6] 101 % of control | [7] 95 % of control

CCS(=O)(=O)C1C2C=CC(O2)C1S(=O)(=O)CC (stereo not given)
inactive: [11] 102 % of control | [12] 101 % of control | [13] 96 % of control

CC(=O)Oc1ccc(/C=C/C(=O)O)cc1OC(C)=O
inactive: dose: 25.0 mg/kg/injection, schedule: Q04DX002 (ip), vehicle: saline with Tween-80 101 % of control | dose: 50.0 mg/kg/injection, schedule: Q04DX002 (ip), vehicle: saline with Tween-80 97 % of control | dose: 100.0 mg/kg/injection, schedule: Q04DX002 (ip), vehicle: saline with Tween-80 94 % of control | dose: 200.0 mg/kg/injection, schedule: Q04DX002 (ip), vehicle: saline with Tween-80 87 % of control | dose: 400.0 mg/kg/injection, schedule: Q04DX002 (ip), vehicle: saline with Tween-80 93 % of control

CC(=O)OCc1cc2ccccc2nc1C
inactive: [14] 110 % of control | [15] 102 % of control | [16] 104 % of control | [17] 96 % of control | dose: 400.0 mg/kg/injection, schedule: Q01DX009 (ip), vehicle: saline with Tween-80 98 % of control | [18] 96 % of control

Nc1nc2c(ncn2C2CC(CO)C(O)C2O)c(=O)[nH]1 (stereo not given)
inactive: dose: 9.5 mg/kg/injection, schedule: Q01DX009 (ip), vehicle: other 101 % of control | dose: 19.0 mg/kg/injection, schedule: Q04DX003 (ip), vehicle: other 94 % of control | dose: 38.0 mg/kg/injection, schedule: Q04DX003 (ip), vehicle: other 92 % of control | [4] 88 % of control

O=C(/C=C/c1ccccc1)OC(C(=O)O)c1ccccc1 (stereo not given)
inactive: dose: 75.0 mg/kg/injection, schedule: Q01DX001 (ip), vehicle: saline 105 % of control | dose: 150.0 mg/kg/injection, schedule: Q01DX001 (ip), vehicle: saline 101 % of control | dose: 300.0 mg/kg/injection, schedule: Q01DX001 (ip), vehicle: saline 109 % of control

O=C(CCCCC(=O)N=C(c1ccccc1)c1ccccc1)N=C(c1ccccc1)c1ccccc1
inactive: dose: 222.0 mg/kg/injection, schedule: Q01DX Z (ip), vehicle: methylcellulose (MC) 93 % of control | dose: 333.0 mg/kg/injection, schedule: Q01DX Z (ip), vehicle: methylcellulose (MC) 98 % of control | dose: 500.0 mg/kg/injection, schedule: Q01DX Z (ip), vehicle: methylcellulose (MC) 97 % of control

C=C1C2CCC3C4(C)CC(OC5OC(CO)C(OS(=O)(=O)O)C(OS(=O)(=O)O)C5OC(=O)CCCC)CC(C(=O)O)(C(=O)O)C4CCC3(C2)C1O (stereo not given)
inactive: dose: 3.12 mg/kg/injection, schedule: Q04DX002 (ip), vehicle: saline 103 % of control | dose: 6.25 mg/kg/injection, schedule: Q04DX002 (ip), vehicle: saline 95 % of control

CN(C)C(=O)Sc1ccc(C(C)(C)C)cc1
inactive: dose: 100.0 mg/kg/injection, schedule: Q01DX001 (ip), vehicle: Klucel (hydroxypropylcellulose) (HPC) 95 % of control | dose: 200.0 mg/kg/injection, schedule: Q01DX001 (ip), vehicle: Klucel (hydroxypropylcellulose) (HPC) 90 % of control | dose: 400.0 mg/kg/injection, schedule: Q01DX001 (ip), vehicle: Klucel (hydroxypropylcellulose) (HPC) 112 % of control

COC(=O)C(C)C(=O)O (stereo not given)
inactive: dose: 100.0 mg/kg/injection, schedule: Q04DX002 (ip), vehicle: saline 90 % of control | dose: 200.0 mg/kg/injection, schedule: Q04DX002 (ip), vehicle: saline 97 % of control | dose: 400.0 mg/kg/injection, schedule: Q04DX002 (ip), vehicle: saline 90 % of control

O=C(/C=C/c1ccc([N+](=O)[O-])cc1)c1ccc(Cl)cc1
inactive: [15] 104 % of control | [17] 94 % of control | [18] 91 % of control

O=C(Nc1nc2ccccc2[nH]1)c1ccc(C(=O)Nc2nc3ccccc3[nH]2)cc1
inactive: dose: 15.0 mg/kg/injection, schedule: Q01DX Z (ip), vehicle: other 100 % of control | dose: 30.0 mg/kg/injection, schedule: Q01DX Z (ip), vehicle: other 100 % of control | dose: 60.0 mg/kg/injection, schedule: Q01DX Z (ip), vehicle: other 100 % of control | dose: 120.0 mg/kg/injection, schedule: Q01DX Z (ip), vehicle: other 97 % of control | dose: 180.0 mg/kg/injection, schedule: Q01DX Z (ip), vehicle: carboxymethylcellulose (CMC) 102 % of control | dose: 270.0 mg/kg/injection, schedule: Q01DX Z (ip), vehicle: carboxymethylcellulose (CMC) 96 % of control

O=C1NC(=O)C(Cc2ccccc2)(Cc2ccccc2)C(=O)N1
inactive: [5] 103 % of control | [6] 95 % of control | [7] 95 % of control

CC(=O)Nc1ccc(OC(=O)Nc2ccc(C)cc2[N+](=O)[O-])cc1
inactive: [11] 91 % of control | [12] 102 % of control | [13] 106 % of control

C(=C\c1ccc2ccccc2n1)/c1ccccc1
inactive: dose: 50.0 mg/kg/injection, schedule: Q01DX009 (ip), vehicle: saline with Tween-80 119 % of control | dose: 100.0 mg/kg/injection, schedule: Q01DX001 (ip), vehicle: saline 103 % of control | [14] 94 % of control | dose: 200.0 mg/kg/injection, schedule: Q01DX001 (ip), vehicle: saline 106 % of control | [16] 109 % of control | dose: 400.0 mg/kg/injection, schedule: Q01DX001 (ip), vehicle: saline 109 % of control
